In US4876284A, “1-alkyl-2-aminotetralin derivatives” (Per Arvid Emil Carlsson, priority 1981, dated 1989):

What was measured:
[1] = in vivo; cited from earlier work
DA autoreceptors = assay: Spontaneous locomotor activity in non-pretreated rats; type: in vivo, rat; details: non-pretreated rats
Method: Untreated animals exposed to a new environment display an initial high motor activity which then gradually declines over a period of time. Administration of DA-receptor agonists (e.g. apomorphine) in doses where preferential autoreceptor stimulation is likely to occur, causes a depression of the spontaneous motility mentioned above, considered to be due to the DA autoreceptor-medicated attenuation of central DA transmission.
Rats (150-300 g) were injected subcutaneously with compound 2,5-OH-DPAT or apomorphine and after 5 minutes they were individually placed in motility boxes ("M/P 40 Fc Electronic Motility Meter". Motron Products, Stockholm) and the motor activity (0-30 min) was quantified. […] These findings are in congruence with the results obtained with the selective DA-autoreceptor agonist 3-PPP [S. Hjorth t al., Life Sciences, 28, 1225 (1981)] but in sharp contrast to the results obtained with 5-OH-DPAT and apomorphine (Table III).
Non-pretreated rats were given compound -2 (0.0625-16.0 mg/kg),
5OH--2-(di-n-propylamino) tetralin (5OH--DPAT; 0.0125-0.05 mg/kg,
apomorphine (0.1-1.0 mg/kg) or saline subcutaneously. Five minutes later
they were placed individually into motility meters and the locomotor

[2] = test system: central DA-receptor (pre- and/or postsynaptic); details: reserpine-pretreated rats, s.c., cited from earlier work
autoreceptor = details: low doses; cited from earlier work
[3] = test system: postsynaptic DA receptors; assay: Antagonism of the reserpine plus α-methyl-para-tyrosine-induced immobility (neuroleptic syndrome) in rats; motor activity

| Compound | actions stated in CA 79: 146294b [1] | Locomotor activity (DA autoreceptors; 0.1 mg/kg s.c.) | Locomotor activity (DA autoreceptors; 1.0 mg/kg s.c.) | effect on locomotor activity, in words (DA autoreceptors; s.c.) | Dopa-accumulation; ED50, Limbic (taken from Hacksell et al., J. Med. Chem. 22, 1469 (1979)) ([2]; limbic forebrain) | Dopa-accumulation; ED50, Striatum (taken from Hacksell et al., J. Med. Chem. 22, 1469 (1979)) ([2]; striatum) | effects demonstrated in man (autoreceptor) | Motor activity ([3]; 1 mg/kg s.c., reserpine 10 mg/kg + α-methyl-para-tyrosine 250 mg/kg i.p., means ± s.e.m.) | motor response / postsynaptic DA-receptor stimulatory effects ([3]; comparative study, Table II, s.c.) | antagonism of the reserpine-induced syndrome / behaviour elicited ([3]; reserpine and α-methyl-para-tyrosine pretreated rats) |
| --- | --- | --- | --- | --- | --- | --- | --- | --- | --- | --- |
| CN(C)C1CCc2ccc(O)cc2C1(C)C (stereo not shown) [1,1-Dimethyl-2-(N,N-dimethylamino)-7-hydroxytetralin] | analgesic and intestinal movement accelerating actions | – | – | – | – | – | – | – | – | – |
| CN1CCc2cccc3c2[C@H]1Cc1ccc(O)c(O)c1-3 [Apomorphine] | – | 134 ± 9 counts 0.30 min | 439 ± 67 counts 0.30 min | lower doses significantly suppressing and higher dosess significantly stimulating the rat locomotor activity | 0.19 μmol/kg s.c. | 0.22 μmol/kg s.c. | "paradoxical" antipsychotic and antidyskinetic effects | 517 ± 56 counts 0-60 min | strong central postsynaptic DA-receptor stimulatory effects | pronounced stereotyped and hyperactive behaviour |
